The results in this text go back to US20250332397A1, “SYSTEMS AND METHODS FOR MICRONEEDLE THERAPEUTIC DELIVERY WITH ACOUSTIC SIGNALS” (THE TRUSTEES OF INDIANA UNIVERSITY, priority 2021, published 2025).

Data set [1] in a line: Ex vivo delivery in mice skin tissues (dye released, absorbance). It is filed as in vitro ADME, BALB/c mice. The conditions noted are these: FIG. 10; 1 Mhz, duty cycle 15%, 4.2 w/cm^2; 30 s, 60 s, 180 s. An excerpt:
The prepared RhB dye (or epinephrine) loaded acoustic patches (or passive patches) were inserted into the fresh hair removed skin tissues harvested from BALB/c mice, and removed from the mice skin tissues. The acoustic path treatment condition (frequency, 1 Mhz; duty cycle, 15%; energy density, 4.2 w/cm^2) was applied to three mouse skin tissues, while there was not acoustic stimulation for passive patch treatments. The mouse skin tissues after acoustic patch and passive treatments with three different treatment time (e.g., 30 s, 60 s, or 180 s) were analyzed.

The test system of data set [2] is anaphylactic mouse model.
Experimental: Olbumin from chicken egg white (OVA) was used as antigen to induce anaphylaxis, where OVA dosage could regulate the degree of anaphylaxis. Specifically, an OVA solution as an adjuvant was prepared in 1 mg/mL of OVA with 1 μg/mL of Pertussis toxin and 10 mg/mL of aluminum potassium sulfate in 0.9% saline. To sensitize mice, BALB/c mice were injected intraperitoneally with 100 μL of the adjuvant OVA solution. After 3 weeks, these actively sensitize mice were challenged with 10 mg/mL of the adjuvant OVA solution. To trigger the anaphylactic reaction, a 50 μL of 10 mg/mL OVA solution in 0.9% saline was injected intraperitoneally into a mouse. The whole anaphylactic process lasted for about 120 mins, and all the mice were sacrificed after the experimental procedures.
The mice during anaphylaxis were characterized via physiological parameters and symptoms including rectal temperature, movement score, respiratory rate, or blood histamine level. Rectal temperature was measured using a rectal probe for mice in every 2 min in real-time. Respiratory rate was measured through counting the breaths during every 20 seconds through observing the thoracic movement. Movement score was tested by rules as follows: (1) react actively after provoking; (2) slow in response after provoking; (3) no active response after provoking; (4) died. Blood histamine level was measured by testing whole blood samples through tail vein through an ELISA kit (Catalog No: IT6088, vendors). Samples were all restored in −80° C. refrigerator for later assessment of the concentration of histamine by an ELISA kit.
Mice were sensitized via intraperitoneal injection of chicken ovalbumin (OVA) and aluminum potassium sulfate adjuvant and triggered an acute allergic reaction by injecting OVA as an allergen after three weeks. […] We measured the core temperature and respiratory rate of the sensitized mice during the induction of anaphylaxis.
Where [3] appears, read: acoustic patch mediated delivery, mouse "B".

As to `CCN(CC)c1ccc2c(-c3ccc(S(=O)(=O)O)cc3S(=O)(=O)[O-])c3ccc(=[N+](CC)CC)cc-3oc2c1` [RhB dye, sulforhodamine B], the “dye released into mouse skin over different delivery times, with acoustics vs without acoustics” value in data set [1] is listed as “increased delivery”.
For `CNC[C@H](O)c1ccc(O)c(O)c1` [epinephrine], in data set [2] (setting [3]), the “allergic symptoms of mouse experiencing severe anaphylaxis” value is “relief from allergic symptoms” and the “body temperature of mouse experiencing severe anaphylaxis” value is reported as “immediate body temperature increase”. Besides, the “symptoms of anaphylaxis (hypothermia, reduced activity, opisthotonos)” value in data set [2] (after intramuscular injection) is “obtained relief from these symptoms”.
